Experimental data taken from article PMC9403976, “Elucidating the path to Plasmodium prolyl-tRNA synthetase inhibitors that overcome halofuginone resistance” (Nature Communications, 2022).
Values joined by “and” are separate entries in the source; they are usually repeats but may differ in a detail not shown here. Identical values can stand only once. Like-named read-outs stand apart in the source and are kept apart here.

Assays:
P. falciparum Dd2-2D4 = assay: P. falciparum asexual blood stage (ABS) growth assay, SYBR Green, 72 h, wild-type parasites; assay type: cell-based, Plasmodium falciparum; settings: Plasmodium falciparum, DD2; SI Fig 16b; values on -log scale; read-out: ABS - Dd2-2D4 (converted)
PfcProRS = biological target: T1, PfcProRS (Plasmodium falciparum, UniProt Q8I5R7); assay type: binding; settings: for dose-response signal (normalized), SI Fig 8: single replicates
T1 construct: made in house; host or cells: E. coli SoluBL-21
T1 sequence (Q8I5R7 249-746): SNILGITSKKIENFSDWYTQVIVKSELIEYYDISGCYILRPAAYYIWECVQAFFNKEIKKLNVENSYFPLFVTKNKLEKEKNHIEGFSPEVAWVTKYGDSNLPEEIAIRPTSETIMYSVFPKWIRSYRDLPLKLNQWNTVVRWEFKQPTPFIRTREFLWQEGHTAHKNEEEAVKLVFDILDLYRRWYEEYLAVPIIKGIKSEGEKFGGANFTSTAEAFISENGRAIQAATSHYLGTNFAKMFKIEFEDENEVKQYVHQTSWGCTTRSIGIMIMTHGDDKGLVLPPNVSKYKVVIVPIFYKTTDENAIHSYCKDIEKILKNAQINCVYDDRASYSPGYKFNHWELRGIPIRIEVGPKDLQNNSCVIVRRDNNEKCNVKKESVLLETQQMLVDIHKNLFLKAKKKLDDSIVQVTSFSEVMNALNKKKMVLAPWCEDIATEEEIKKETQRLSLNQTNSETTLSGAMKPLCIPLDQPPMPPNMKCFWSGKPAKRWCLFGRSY

HsProRS = HsProRS (Homo sapiens, UniProt P07814); assay: TR-FRET ligand displacement assay with tracer MAT379 (CoraFluor-1-Halo and anti-His6 antibody formats); assay type: binding; parameters: made in house; host or cells: E. coli SoluBL-21; settings: for TR-FRET dose-response, normalized signal (SI Fig 11): individual replicates
Sequence of HsProRS (P07814 996-1512): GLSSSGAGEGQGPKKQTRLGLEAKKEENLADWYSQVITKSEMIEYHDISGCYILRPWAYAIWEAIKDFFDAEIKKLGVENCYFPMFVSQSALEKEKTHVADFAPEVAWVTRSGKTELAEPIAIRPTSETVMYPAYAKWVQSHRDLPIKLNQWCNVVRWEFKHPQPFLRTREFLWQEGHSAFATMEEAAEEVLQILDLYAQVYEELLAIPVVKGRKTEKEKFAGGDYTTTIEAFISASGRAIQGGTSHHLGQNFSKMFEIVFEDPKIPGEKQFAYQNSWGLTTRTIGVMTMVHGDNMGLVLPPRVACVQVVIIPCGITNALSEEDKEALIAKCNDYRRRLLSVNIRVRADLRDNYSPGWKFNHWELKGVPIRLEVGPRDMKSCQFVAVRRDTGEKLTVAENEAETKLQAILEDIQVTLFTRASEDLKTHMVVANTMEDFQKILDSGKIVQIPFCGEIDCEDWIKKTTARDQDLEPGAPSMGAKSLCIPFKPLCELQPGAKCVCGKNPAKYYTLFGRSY

O=C(NC1Cc2ccccc2C1)c1nccnc1NC(=O)N1CCC(CCO)CC1 [compound 12]
EC50 (P. falciparum Dd2-2D4): 153 nM
dose-response signal (normalized), SI Fig 8 (PfcProRS; Log[inhibitor] (M) -5.000): 1.96E-01 and 6.39E-02 and 9.88E-02
dose-response signal (normalized), SI Fig 8 (PfcProRS; Log[inhibitor] (M) -5.301): 1.70E-01 and 1.45E-01 and 2.26E-01
dose-response signal (normalized), SI Fig 8 (PfcProRS; Log[inhibitor] (M) -5.601): 3.61E-01 and 2.68E-01 and 3.67E-01
dose-response signal (normalized), SI Fig 8 (PfcProRS; Log[inhibitor] (M) -5.904): 5.30E-01 and 5.32E-01 and 5.86E-01
dose-response signal (normalized), SI Fig 8 (PfcProRS; Log[inhibitor] (M) -6.208): 7.40E-01 and 8.32E-01 and 8.18E-01
dose-response signal (normalized), SI Fig 8 (PfcProRS; Log[inhibitor] (M) -6.509): 9.11E-01 and 8.45E-01 and 9.67E-01
dose-response signal (normalized), SI Fig 8 (PfcProRS; Log[inhibitor] (M) -6.796): 1.07E+00 and 9.35E-01 and 8.42E-01
dose-response signal (normalized), SI Fig 8 (PfcProRS; Log[inhibitor] (M) -7.108): 1.04E+00 and 9.91E-01 and 9.07E-01
dose-response signal (normalized), SI Fig 8 (PfcProRS; Log[inhibitor] (M) -7.409): 1.05E+00 and 1.07E+00 and 9.30E-01
dose-response signal (normalized), SI Fig 8 (PfcProRS; Log[inhibitor] (M) -7.710): 9.50E-01 and 9.05E-01 and 1.01E+00
dose-response signal (normalized), SI Fig 8 (PfcProRS; Log[inhibitor] (M) -8.000): 1.00E+00 and 9.33E-01 and 9.19E-01
dose-response signal (normalized), SI Fig 8 (PfcProRS; Log[inhibitor] (M) -8.301): 1.00E+00 and 9.74E-01 and 1.08E+00
dose-response signal (normalized), SI Fig 8 (PfcProRS; Log[inhibitor] (M) -8.602): 9.86E-01 and 9.74E-01 and 9.65E-01
dose-response signal (normalized), SI Fig 8 (PfcProRS; Log[inhibitor] (M) -9.000): 9.41E-01 and 9.53E-01 and 9.73E-01
dose-response signal (normalized), SI Fig 8 (PfcProRS; Log[inhibitor] (M) -9.301): 9.78E-01 and 8.31E-01 and 1.01E+00
PfcProRS -- best Kd (PfcProRS; SI Fig 16a, values on -log scale): 6.470
Kd (HsProRS; HsProRS (KD [nM]) mean, no added proline/ATP (-)): 687 nM
Kd (HsProRS; HsProRS - best Kd, SI Fig 16a, values on -log scale): 150 nM
normalized TR-FRET ligand displacement signal, dose-response replicates (SI Fig 6) (HsProRS; Log[inhibitor] (M) -5.000): 1.59E-01 and 1.60E-01 and 2.09E-01
TR-FRET dose-response, normalized signal (SI Fig 11) (HsProRS; Log[inhibitor] (M) -5.000): 3.68E-02 (2×) and 3.81E-02
normalized TR-FRET ligand displacement signal, dose-response replicates (SI Fig 6) (HsProRS; Log[inhibitor] (M) -5.301): 3.23E-01 and 2.51E-01 and 1.66E-01
TR-FRET dose-response, normalized signal (SI Fig 11) (HsProRS; Log[inhibitor] (M) -5.301): 1.17E-01 and 1.16E-01 and 1.37E-01
normalized TR-FRET ligand displacement signal, dose-response replicates (SI Fig 6) (HsProRS; Log[inhibitor] (M) -5.601): 4.15E-01 (2×) and 3.76E-01
TR-FRET dose-response, normalized signal (SI Fig 11) (HsProRS; Log[inhibitor] (M) -5.601): 3.29E-01 and 2.78E-01 and 2.37E-01
normalized TR-FRET ligand displacement signal, dose-response replicates (SI Fig 6) (HsProRS; Log[inhibitor] (M) -5.904): 6.44E-01 and 5.20E-01 and 5.13E-01
TR-FRET dose-response, normalized signal (SI Fig 11) (HsProRS; Log[inhibitor] (M) -5.904): 4.76E-01 and 4.29E-01 and 4.93E-01
normalized TR-FRET ligand displacement signal, dose-response replicates (SI Fig 6) (HsProRS; Log[inhibitor] (M) -6.208): 7.49E-01 and 7.87E-01 and 7.20E-01
TR-FRET dose-response, normalized signal (SI Fig 11) (HsProRS; Log[inhibitor] (M) -6.208): 5.93E-01 and 6.01E-01 and 5.70E-01
normalized TR-FRET ligand displacement signal, dose-response replicates (SI Fig 6) (HsProRS; Log[inhibitor] (M) -6.509): 9.12E-01 and 8.62E-01 and 8.67E-01
TR-FRET dose-response, normalized signal (SI Fig 11) (HsProRS; Log[inhibitor] (M) -6.509): 7.07E-01 and 6.82E-01 and 7.18E-01
normalized TR-FRET ligand displacement signal, dose-response replicates (SI Fig 6) (HsProRS; Log[inhibitor] (M) -6.796): 1.06E+00 and 1.12E+00 and 9.20E-01
TR-FRET dose-response, normalized signal (SI Fig 11) (HsProRS; Log[inhibitor] (M) -6.796): 7.97E-01 and 7.75E-01 and 7.79E-01
normalized TR-FRET ligand displacement signal, dose-response replicates (SI Fig 6) (HsProRS; Log[inhibitor] (M) -7.108): 1.07E+00 and 1.02E+00 and 1.12E+00
TR-FRET dose-response, normalized signal (SI Fig 11) (HsProRS; Log[inhibitor] (M) -7.108): 8.56E-01 and 8.75E-01 and 8.83E-01
normalized TR-FRET ligand displacement signal, dose-response replicates (SI Fig 6) (HsProRS; Log[inhibitor] (M) -7.409): 1.02E+00 and 1.06E+00 (2×)
TR-FRET dose-response, normalized signal (SI Fig 11) (HsProRS; Log[inhibitor] (M) -7.409): 8.85E-01 and 8.47E-01 and 8.63E-01
normalized TR-FRET ligand displacement signal, dose-response replicates (SI Fig 6) (HsProRS; Log[inhibitor] (M) -7.710): 9.85E-01 and 1.01E+00 and 9.72E-01
TR-FRET dose-response, normalized signal (SI Fig 11) (HsProRS; Log[inhibitor] (M) -7.710): 8.80E-01 and 8.88E-01 and 8.59E-01
normalized TR-FRET ligand displacement signal, dose-response replicates (SI Fig 6) (HsProRS; Log[inhibitor] (M) -8.000): 9.44E-01 and 9.64E-01 and 9.22E-01
TR-FRET dose-response, normalized signal (SI Fig 11) (HsProRS; Log[inhibitor] (M) -8.000): 9.20E-01 and 9.38E-01 and 9.24E-01
normalized TR-FRET ligand displacement signal, dose-response replicates (SI Fig 6) (HsProRS; Log[inhibitor] (M) -8.301): 9.32E-01 and 1.05E+00 and 8.26E-01
TR-FRET dose-response, normalized signal (SI Fig 11) (HsProRS; Log[inhibitor] (M) -8.301): 8.82E-01 and 8.99E-01 and 9.20E-01
normalized TR-FRET ligand displacement signal, dose-response replicates (SI Fig 6) (HsProRS; Log[inhibitor] (M) -8.602): 1.02E+00 and 1.07E+00 and 9.72E-01
TR-FRET dose-response, normalized signal (SI Fig 11) (HsProRS; Log[inhibitor] (M) -8.602): 9.41E-01 and 8.91E-01 and 9.25E-01
normalized TR-FRET ligand displacement signal, dose-response replicates (SI Fig 6) (HsProRS; Log[inhibitor] (M) -9.000): 9.71E-01 and 8.87E-01 and 1.00E+00
TR-FRET dose-response, normalized signal (SI Fig 11) (HsProRS; Log[inhibitor] (M) -9.000): 9.29E-01 and 9.20E-01 and 9.52E-01
normalized TR-FRET ligand displacement signal, dose-response replicates (SI Fig 6) (HsProRS; Log[inhibitor] (M) -9.301): 1.06E+00 and 9.50E-01 and 9.98E-01
TR-FRET dose-response, normalized signal (SI Fig 11) (HsProRS; Log[inhibitor] (M) -9.301): 9.00E-01 and 9.10E-01 and 9.03E-01
